In patent US8431540B2, “Modified lysine-mimetic compounds” (Zealand Pharma A/S, priority 2005, dated 2013):

What was measured:
Male CD-1 mice = test: Calcium-induced arrhythmia model (time to AV block after CaCl2 infusion); assay type: in vivo; conditions: compound IV 3 min before CaCl2 infusion (100 mg/kg/min), saline control 62-78
Experimental: Peptides suitable for administration to cardiac cells can be identified in an in vivo model of calcium-induced arrhythmias according to the model of Lynch et al. (1981) J Cardiovasc. Pharmacol. 3: 49-60. Male CD-1 mice are anaesthetized with Ketamine (75 mg/kg) and medetomidine (1 mg/kg) IP. An i.v. cannula is inserted into the tail vein. A lead II ECG signal is recorded continuously by positioning stainless steel ECG electrodes on the right forelimb and […]. The ground electrode is placed on the right hind limb. The signal is amplified and filtered using Gould physiograph components and po-ne-mah data acquisition software. After a 90 sec equilibration period test compound is injected into the tail vein (over 30 seconds). Mice pre-treated with vehicle are tested as control animals. The injection volume is 100 μl/30 g mice in all experiments. Infusion of CaCl2 (30 mg/mL, 0.1 mL/min/30 g mice, 100 mg/kg/min) is started 3 min after IV administration of drug or vehicle (0.9% saline). The time lag to onset of cardiac conduction block is determined as the time from the start of CaCl2 infusion until the first arrhythmic event occurred. The first conduction block is defined as the first RR-interval, larger than or equal to 3 times one RR-interval from the pre-treatment period. The first arrhythmic event occurring is either a second degree AV-block (intermittent failure of the AV conduction characterized by a P-wave without the concomitant QRS complex) or a second degree SA block (prolonged RR-interval and a QRS-complex without a preceding P-wave). Responses are expressed relative to the time until 2nd degree AV-block occurred in vehicle treated mice.
The anti-arrhythmic effect of compounds according to the present teachings was tested in a model of calcium-induced arrhythmias according to the model of Lynch et al., J. Cardiovasc. Pharmacol. (1981), 3: 49-60. Male CD-1 mice were anaesthetized with Ketamine (75 mg/kg) and medetomidine (1 mg/kg) IP. An i.v. cannula was inserted into the tail vein. A lead II ECG signal was recorded continuously by positioning stainless steel ECG electrodes on the right forelimb and […]. The ground electrode was placed on the right hind limb. The signal was amplified and filtered using Gould physiograph components and po-ne-mah data acquisition software. After a 90 sec equilibration period test compound was injected into the tail vein (over 30 seconds). Mice pre-treated with vehicle (0.9% saline) were tested as control animals. The injection volume was 100 μl/30 g mice in all experiments. Infusion of CaCl2 (30 mg/mL, 0.1 mL/min/30 g mice, 100 mg/kg/min) was started 3 min after IV administration of drug or vehicle. The time lag to onset of cardiac conduction block was determined as the time from the start of CaCl2 infusion until the first arrhythmic event occurred. The first conduction block was defined as the first RR-interval, larger/or equal to, 3 times one RR-interval from the pre-treatment period. The first arrhythmic event occurring was either a second degree AV-block (intermittent failure of the AV conduction characterized by a P-wave without the concomitant QRS complex) or a second degree SA block (prolonged RR-interval and a QRS-complex without a preceding P-wave).
Mice pre-treated with vehicle (0.9% saline) were tested on all days as a measure for control level in untreated animal. Injection volume was 100 μL in all experiments. The time lag to onset of arrhythmias was determined as the time from the start of CaCl2 infusion until the first event of conduction block defined as intermittent failure of the SA or AV conduction characterized by delayed P-wave activation (SA block) or by a P-wave without the concomitant QRS complex (AV block). The time lag to onset of AV block is given below in Table 2.

[1] = tested on: dogs subjected to a 60-min coronary artery occlusion and 4 hr reperfusion; test: Canine infarct size and reperfusion arrhythmia model; assay type: in vivo; conditions: dog, two highest doses; for Total incidence of VT: IV 10-min before reperfusion, controls 23.0±6.1; for Total PVC's: during reperfusion, control 11.1±1.6%; for Infarct size, expressed as percent of left ventricle: controls 19.0±3.5
Experimental: Compound 2 was tested in dogs subjected to a 60-min coronary artery occlusion and 4 hr reperfusion, as described by Hennan et al. ([…]., 317, 236-43 (2006)). Compound 2 was administered IV 10-min before reperfusion as a bolus+IV infusion at doses of: 0.25 μg/kg bolus+0.19 μg/kg/hr infusion (n=6); 2.5 μg/kg bolus+1.9 μg/kg/hr infusion (n=7); 25 μg/kg bolus+19 μg/kg/hr infusion (n=6); 75 μg/kg bolus+57 μg/kg/hr infusion (n=5); vehicle control (n=7). Premature ventricular complexes (PVC's) were quantified during reperfusion. Four or more consecutive PVC's was defined as ventricular tachycardia (VT).

[2] = tested on: C6 glioma cells overexpressing connexin43; test: In vitro cell swelling and dye uptake model (simulated ischemia); assay type: cell-based
Experimental: In this experiment, the effect of Compound 2 on calcein dye-uptake induced by metabolic inhibition in cultured C6 glioma cells overexpressing connexin43 was studied. Cells were incubated under control conditions and during simulated ischemia (SI) for 40 minutes in the presence of calcein (200 μM). Following incubation the cells were subjected to epifluorescence microscopy to determine the uptake of calcein. Incubation of C6 cells in SI medium increased dye-uptake to 5-fold above control values.

[3] = first value (25 μg/kg bolus+19 μg/kg/hr infusion)
[4] = second value (75 μg/kg bolus+57 μg/kg/hr infusion)

With `NCC(=O)N1C[C@H](NC(=O)c2ccccc2)C[C@H]1C(=O)O` [Compound 2, (2S4R)1-(2-Amino-acetyl)-4-benzoylamino-pyrrolidine-2-carboxylic acid] the “Time to AV block” value (Male CD-1 mice) was 134.7 s, the “Total incidence of VT” value [1, 3] was 1.7±0.8 events and the “Total incidence of VT” value [1, 4] was 2.2±1.4 events. For the same compound, the “Total PVC's” value [1, 3] was 2.0±0.7%, the “Total PVC's” value [1, 4] was 1.8±0.8% and the “Infarct size, expressed as percent of left ventricle” value [1, 3] was 7.9±1.5%. For the same compound, the “Infarct size, expressed as percent of left ventricle” value [1, 4] was 7.1±0.8%, the “relative reduction of the SI inducible calcein dye-uptake response” value ([2]; 100 μM compound, simulated ischemia 40 minutes, calcein 200 μM, p<0.05 vs. vehicle) was 32% and the “calcein dye-uptake during simulated ischemia” value ([2]; C6 glioma cells overexpressing connexin43, simulated ischemia 40 minutes) was “dose-dependently inhibited”. The “cell swelling during the 40 min stress period” value ([2]; C6 glioma cells, control cells exhibited cell swelling) was “did not”.
